From ChEMBL document CHEMBL2311359, “Antiproliferative and apoptotic effects of the oxidative dimerization product of methyl caffeate on human breast cancer cells” (Bioorg Med Chem Lett, 2013)
The source made the active and inactive calls. The calls are words filed in the database; no cut-off is given here.

What was measured:
[1] = Drug degradation in culture medium assessed as dehydration; assay type: physicochemical
[2] = tested on: MCF7; assay: Growth inhibition of human MCF7 cells at 10 uM after 48 hrs; assay type: functional
[3] = tested on: MDA-MB-231; assay: Induction of cell cycle arrest in human MDA-MB-231 cells assessed as S phase cells at 5 uM after 48 hrs by flow cytometric analysis (reference value: 40.4%); assay type: functional
[4] = tested on: MDA-MB-231; assay: Induction of cell cycle arrest in human MDA-MB-231 cells assessed as subG0 phase cells at 5 uM after 48 hrs by propidium iodide-staining method in absence of fetal calf serum relative to control; assay type: functional
[5] = tested on: MCF7; assay: Induction of cell cycle arrest in human MCF7 cells assessed as subG0 phase cells at 5 uM after 48 hrs by propidium iodide-staining method in absence of fetal calf serum relative to control; assay type: functional
[6] = tested on: MCF7; assay: Induction of apoptosis in human MCF7 cells assessed as pyknosis at 1 to 10 uM after 48 hrs by Hoechst-staining method in presence of fetal calf serum; assay type: functional, cell-based
[7] = tested on: MDA-MB-231; assay: Induction of apoptosis in human MDA-MB-231 cells assessed as apoptotic bubbling at 1 to 10 uM after 48 hrs by Hoechst-staining method in absence of fetal calf serum; assay type: functional, cell-based
[8] = tested on: MCF7; assay: Induction of apoptosis in human MCF7 cells assessed as apoptotic bubbling at 1 to 10 uM after 48 hrs by Hoechst-staining method in absence of fetal calf serum; assay type: functional, cell-based
[9] = tested on: MDA-MB-231; assay: Growth inhibition of human MDA-MB-231 cells after 48 hrs in absence of fetal calf serum; assay type: functional, cell-based; settings: MDA-MB-231, 48 h
[10] = tested on: MCF7; assay: Induction of apoptosis in human MCF7 cells assessed as apoptotic bubbling at 1 to 10 uM after 48 hrs by Hoechst-staining method in presence of fetal calf serum; assay type: functional, cell-based
[11] = tested on: MDA-MB-231; assay: Induction of cell cycle arrest in human MDA-MB-231 cells assessed as subG0 phase cells at 5 uM after 48 hrs by propidium iodide-staining method in presence of fetal calf serum relative to control; assay type: functional
[12] = tested on: MCF7; assay: Induction of apoptosis in human MCF7 cells after 48 hrs by Hoechst-staining method in absence of fetal calf serum; assay type: functional, cell-based
[13] = tested on: MDA-MB-231; assay: Growth inhibition of human MDA-MB-231 cells after 48 hrs in presence of fetal calf serum; assay type: functional, cell-based; settings: MDA-MB-231, 48 h
[14] = tested on: MCF7; assay: Growth inhibition of human MCF7 cells after 48 hrs in absence of fetal calf serum; assay type: functional, cell-based; settings: MCF7, 48 h
[15] = tested on: MDA-MB-231; assay: Induction of apoptosis in human MDA-MB-231 cells assessed as pyknosis at 1 to 10 uM after 48 hrs by Hoechst-staining method in absence of fetal calf serum; assay type: functional, cell-based
[16] = tested on: MCF7; assay: Induction of apoptosis in human MCF7 cells at 10 uM after 48 hrs by Hoechst-staining method in presence of fetal calf serum; assay type: functional
[17] = tested on: MDA-MB-231; assay: Induction of apoptosis in human MDA-MB-231 cells after 48 hrs by Hoechst-staining method in absence of fetal calf serum; assay type: functional, cell-based
[18] = tested on: MCF7; assay: Induction of cell cycle arrest in human MCF7 cells assessed as S/G2 phase cells at 5 uM after 48 hrs by flow cytometric analysis (reference value: 17.8%); assay type: functional
[19] = tested on: MDA-MB-231; assay: Induction of cell cycle arrest in human MDA-MB-231 cells assessed as decrease in G2/M phase cells at 5 uM after 48 hrs by flow cytometric analysis relative to control; assay type: functional, cell-based
[20] = tested on: MDA-MB-231; assay: Induction of apoptosis in human MDA-MB-231 cells at 10 uM after 48 hrs by Hoechst-staining method in presence of fetal calf serum; assay type: functional
[21] = tested on: MDA-MB-231; assay: Induction of apoptosis in human MDA-MB-231 cells after 48 hrs by Hoechst-staining method in presence of fetal calf serum; assay type: functional, cell-based
[22] = tested on: MDA-MB-231; assay: Induction of apoptosis in human MDA-MB-231 cells assessed as pyknosis at 1 to 10 uM after 48 hrs by Hoechst-staining method in presence of fetal calf serum; assay type: functional, cell-based
[23] = tested on: MCF7; assay: Induction of cell cycle arrest in human MCF7 cells assessed as subG0 phase cells at 5 uM after 48 hrs by propidium iodide-staining method in presence of fetal calf serum relative to control; assay type: functional
[24] = tested on: MCF7; assay: Induction of cell cycle arrest in human MCF7 cells assessed as S phase cells at 5 uM after 48 hrs by flow cytometric analysis (reference value: 46.6%); assay type: functional
[25] = tested on: MCF7; assay: Induction of apoptosis in human MCF7 cells assessed as pyknosis at 1 to 10 uM after 48 hrs by Hoechst-staining method in absence of fetal calf serum; assay type: functional, cell-based
[26] = tested on: MDA-MB-231; assay: Induction of apoptosis in human MDA-MB-231 cells assessed as apoptotic bubbling at 1 to 10 uM after 48 hrs by Hoechst-staining method in presence of fetal calf serum; assay type: functional, cell-based
[27] = tested on: MCF7; assay: Growth inhibition of human MCF7 cells after 48 hrs in presence of fetal calf serum; assay type: functional, cell-based; settings: MCF7, 48 h
[28] = tested on: MDA-MB-231; assay: Induction of cell cycle arrest in human MDA-MB-231 cells assessed as decrease in G0/G1 phase cells at 5 uM after 48 hrs by flow cytometric analysis relative to control; assay type: functional, cell-based
[29] = tested on: MCF7; assay: Induction of apoptosis in human MCF7 cells after 48 hrs by Hoechst-staining method in presence of fetal calf serum; assay type: functional, cell-based
[30] = tested on: MCF7; assay: Induction of cell cycle arrest in human MCF7 cells assessed as G0/G1 phase cells at 5 uM after 48 hrs by flow cytometric analysis (reference value: 35.6%); assay type: functional
[31] = tested on: T47D; assay: Antiproliferative activity against human T47D cells after 5 days by MTT assay; assay type: functional, cell-based; settings: 120 h
[32] = Drug degradation in culture medium assessed as decarboxylation; assay type: physicochemical

Question: For COC(=O)C1C(O)c2cc(OC)c(O)c(OC)c2[C@@H](c2cc(OC)c(O)c(OC)c2)[C@@H]1C(=O)OC (stereo partly drawn), which Stability [1] is on record?
Answer: The Stability was “Unstable”.

Question: And the “growth inhibition (GI)” value [2]?
Answer: The value was “Active”.

Question: Which “growth inhibition (GI)” value [2] does the source give for COC(=O)C1=Cc2cc(OC)c(O)c(C)c2[C@@H](c2cc(C)c(O)c(OC)c2)[C@@H]1C(=O)OC here?
Answer: Its value is “inactive”.

Question: For COC(=O)C1=Cc2cc(OC)c(O)cc2[C@@H](c2ccc(O)c(OC)c2)[C@@H]1C(=O)OC, which “growth inhibition (GI)” value [2] is on record?
Answer: Its value is “inactive”.

Question: What does the source list for COC(=O)C1=Cc2cc(O)c(O)cc2[C@@H](c2ccc(O)c(O)c2)[C@@H]1C(=O)OC?
Answer: Activity [3]: 56.1%; Activity [4]: 20%; Activity [5]: 20%; Activity [6]: Active; Activity [7]: Active; Activity [8]: Active; IC50 [9]: 5000 nM; Activity [10]: Active; Activity [11]: 20%; Activity [12]: Dose-dependent effect; IC50 [13]: 5000 nM; inhibition of growth at 10 µM ([2]; MCF7, 48 h, read-out: GI): 82%; IC50 [14]: 1000 nM; Activity [15]: Active; Activity [16]: 25%; Activity [17]: Dose-dependent effect; Activity [18]: 17%; Activity [19]: Active; Activity [20]: 25%; Activity [21]: Dose-dependent effect; Activity [22]: Active; Activity [23]: 20%; Activity [24]: 34.7%; Activity [25]: Active; Activity [26]: Active; IC50 [27]: 1000 nM; Activity [28]: Active; Activity [29]: Dose-dependent effect; Activity [30]: 29.4%

Question: Which “growth inhibition (GI)” value [2] does the source give for CCOC(=O)C1=Cc2cc(O)c(O)cc2[C@@H](c2ccc(O)cc2)[C@@H]1C(=O)O (relative stereo) here?
Answer: Its value is “Active”.

Question: For O=C(O)/C=C/c1ccc(O)c(O)c1 [CAFFEIC ACID], which IC50 [31] is on record?
Answer: The IC50 was 2 nM.

Question: With CCOC(=O)C1=Cc2cc(O)c(O)cc2[C@@H](c2ccc(O)cc2)[C@@H]1C(=O)OCC (relative stereo) as the compound, how does the “growth inhibition (GI)” value [2] read?
Answer: Its value is “Active”.

Question: Which “growth inhibition (GI)” value [2] does the source give for O=C(O)C1=Cc2cc(O)c(O)cc2[C@@H](c2ccc(O)cc2)[C@@H]1C(=O)O (relative stereo) here?
Answer: The value was “Active”.

Question: And the Stability [32]?
Answer: The Stability was “Unstable”.
